According to patent US11649220B2 (DEMOTECH.INC., priority 2018, dated 2023):

Experiments:
[1] = In vitro free radical inhibition test (DPPH method); conditions: 8 μL of 20 mmol/L compound in 1 mL DPPH 0.059 mg/mL ethanol, 60 min dark, 517 nm; for inhibition rate %: DPPH; for Relative inhibition ability on free radicals: inhibition rate of AGI1067 on DPPH defined as 100
Source text: 1. In Vitro Free Radical Inhibition Test (DPPH Method)
The single electron of DPPH radical has a strong absorption at […], and its alcohol solution is purple. In the presence of a free radical scavenger, the absorption of DPPH radical is weakened or disappeared for the reason that the free radical scavenger is paired with the single electron of DPPH radical, and the degree of discoloration is quantitatively related to the number of electrons DPPH radical receives. Therefore, a spectrophotometer can be used to quickly and quantitatively analyze the free radical scavenging rate of the compound.
1) 1 mL solution of DPPH in absolute ethanol (concentration: 0.059 mg/mL) was taken; 2) 8 μL of the compound to be tested (20 mmol/L) were added; 3) after mixing well, the resultant was kept in dark at room temperature for 60 minutes, 4) the absorbance of the sample at 517 nm was measured.

[2] = system: golden hamsters (60% high-fat food, STZ induced); assay: Golden hamster disease model, animal model induction group (16-week-old group): blood biochemical indexes and body weight; assay type: in vivo; conditions: for change rate of blood glucose %: 0.1 mL of 6.8 mg/mL DMSO solution + 0.25 mL whole milk by gavage once a day for 2 weeks; for change rate of body weight after deduction of DMSO blank %: DMSO blank deducted; for average body weight after administration/g / change of body weight/g / change rate of body weight %: after gavage once a day for 2 weeks; for HDL % / LDL % / total cholesterol % / triglyceride %: change rate, gavage once a day for 2 weeks
Method: Animals and feed: 1) 8-week-old male golden hamsters with a body weight range of 100±5 g were selected; 2) 60% high-fat food; 3) 30% high-fat food; 4) general feed: NRC standard feed, containing 5% fat, total calories 4200 kcal/kg.
Animal model induction group (16-week-old group): 1) fed with 60% high-fat food for 2 weeks under standard environment; 2) STZ intraperitoneal injection twice every two days, 50 mg/kg each time; 3) After STZ induction, the golden hamsters were continuous fed for 1 week; 4) Blood was taken from the ocular venous plexus, and the initial body weight, blood glucose, total cholesterol, LDL-c, HDL-c and triglyceride were measured, and the golden hamsters were grouped in parallel according to animal biochemical indicators, 8 in each group; 5) Gavage of compounds: 0.1 mL of solution of compound (concentration: 6.8 mg/mL, DMSO solution) and 0.25 mL of whole milk were mixed evenly and administrated by gavage once a day for 2 weeks; 6) Blank control: 0.1 mL of DMSO and 0.25 mL of whole milk were mixed evenly and administrated by gavage once a day for 2 weeks; 7) Observation time: 14 days later, blood was taken from the ocular venous plexus, and the body weight, blood glucose, total cholesterol, LDL-c, HDL-c and triglyceride were measured.
Instruments: Shimadzu UV-1750 spectrophotometer, clinical determination kit (Changchun Huili Biotechnology Co., Ltd.)
Determination of blood glucose: glucose oxidase method, kit
Determination of total cholesterol (COD-PAP method), kit
Determination of low density lipoprotein cholesterol (direct method), kit
Determination of triglyceride (GP-PAP method)
Determination of high density lipoprotein (direct method), kit

[3] = system: Malondialdehyde (MDA) in serum; assay: In vivo anti-lipid oxidation experiment (serum MDA, TBA method); set-up: inhibition rate %: concentration or dose not given beside the values; conditions: MAD lipid peroxidation in vivo; for inhibition rate %: relative to solvent DMSO and Chow averages; for avarage value of OD: serum, TBA method, 532 nm
Source text: Experimental principle: Malondialdehyde (MDA) in liposome degradation products could condense with thiobarbituric acid (TBA) to form a red product which has a maximum absorption peak at 532 nm. The spectrophotometer was used to measure the relative absorption value to calculate the antioxidant value.
Reagents: Malondialdehyde (MDA) test kit (article number: A003-1, […], Nanjing Jiancheng), glacial acetic acid of analytically pure grade.
Reagent preparations: 1) Reagent I: Reagent 1 in the kit was taken out from the refrigerator and subjected to natural warming until a transparent liquid is obtained; 2) Reagent II: 170 mL of double-distilled water was added to each bottle and mixed; 3) Reagent III: A dry powder in the kit was dissolved in 60 mL of double-distilled water at 90 to 100° C. After the dry powder was dissolved totally, 30 mL of glacial acetic acid was added and kept in dark place; 4) Standard: 10 nmol/mL tetraethoxypropane.
Experimental procedures: 1) Blank tube: To 2 mL centrifuge tube were added anhydrous ethanol (70 μl), Reagent I (70 μl), Reagent II (0.8 mL) and Reagent III (0.8 mL) in sequence; 2) Standard tube: To 2 mL centrifuge tube were added standard (70 μl), Reagent I (70 μl), Reagent 11 (0.8 mL) and Reagent III (0.8 mL) in sequence; 3) Measuring tube: To 2 mL centrifuge tube were added the serum to be tested and physiological saline (the total volume of serum and physiological saline is 70 μl), Reagent I (70 μl), Reagent II (0.8 mL) and Reagent III (0.8 mL) in sequence; 4) Control tubes: all samples are set up with corresponding control tubes. To a 2 mL centrifuge tube were added the serum to be tested and physiological saline (the total volume of serum and physiological saline is 70 μl), Reagent I (70 μl), Reagent II (0.8 mL) and 50% glacial acetic acid (0.8 mL) in sequence.
After the above reagents were added, the mixture was mixed homogenously. Then the mixture was left in the water bath at 95° C. for 60 minutes. The sample was centrifuged at 4000 rpm for 10 minutes. The supernatant was taken for the measurement of the OD value.
Experimental data processing: the MDA content in serum was calculated as follows: MDA=(OD valuemeasured−OD valuecontrol)/OD valuestandard*concentration of the standard Inhibition rate %=100−(ODsample-average value−average value of Chow)/(average value of the solvent DMSO−average value of Chow)*100

Compound | inhibition rate % [1] [%] | Relative inhibition ability on free radicals [1] | change rate of blood glucose % [2] [%] | change rate of body weight after deduction of DMSO blank % [2] [%] | average body weight after administration/g [2] [g] | change of body weight/g [2] [g] | change rate of body weight % [2] [%] | HDL % [2] [%] | LDL % [2] [%] | total cholesterol % [2] [%] | triglyceride % [2] [%] | inhibition rate % [3] [%] | avarage value of OD [3]
CC(C)(Sc1cc(C(C)(C)C)c(O)c(C(C)(C)C)c1)Sc1cc(C(C)(C)C)c(O)c(C(C)(C)CCO)c1 [Compound 8, 2,6-di-tert-butyl-4-((2-((3-(tert-butyl)-4-hydroxy-5-(4-hydroxy-2-methylbutan-2-yl)phenyl)thio)propan-2-yl)thio)phenol] | 37.7 | 86.5 | 48.6 | −6.1 | 149.0 | 5.3 | 3.7 | 60.2 | 11.1 | −7.6 | 59.1 | 59.8 | 6.98
CC(C)(Sc1cc(C(C)(C)C)c(O)c(C(C)(C)C)c1)Sc1cc(C(C)(C)C)c(O)c(C(C)(C)CCOC(=O)CCC(=O)O)c1 [Compound 11, 4-(3-(3-(tert-butyl)-5-((2-((3,5-di-tert-butyl-4-hydroxyphenyl)thio)propan-2-yl)thio)-2-hydroxyphenyl)-3-methylbutoxy)-4-oxobutanoic acid] | 19.9 | 45.5 | 35.3 | −5.5 | 140.9 | 5.8 | 4.3 | 49.7 | −8.1 | −0.4 | 8.7 | 44.7 | 7.56
CC(=O)Oc1ccccc1C(=O)OCCC(C)(C)c1cc(SC(C)(C)Sc2cc(C(C)(C)C)c(O)c(C(C)(C)C)c2)cc(C(C)(C)C)c1O [Compound 13, 3-(3-(tert-butyl)-5-((2-((3,5-di-tert-butyl-4-hydroxyphenyl)thio)propan-2-yl)thio)-2-hydroxyphenyl)-3-methylbutyl 2-acetoxybenzoate] | 34.1 | 78.2 | −3.9 | −7.8 | 136.6 | 2.6 | 2.0 | 57.9 | −6.7 | −9.0 | −10.0 | 53.8 | 7.21
CC(C)(Sc1cc(C(C)(C)C)c(O)c(C(C)(C)C)c1)Sc1cc(C(C)(C)C)c(O)c(C(C)(C)CCNC(=O)CCCCC2CCSS2)c1 (stereo not shown) [Compound 23, N-(3-(3-(tert-butyl)-5-((2-((3,5-di-tert-butyl-4-hydroxyphenyl)thio)propan-2-yl)thio)-2-hydroxyphenyl)-3-methylbutyl)-5-(1,2-dithiolan-3-yl)pentanamide] | 12.1 | 27.7 | 19.5 | −3.8 | 147.2 | 8.3 | 6.0 | 102.1 | −11.2 | −6.4 | 21.9 | 82.6 | 6.10
